Measured values from patent US12595280B2, “Phosphoramidates for the treatment of hepatitis B virus” (priority 2014, dated 2026).
Where two headings read alike, the source gives them in different places.

Tests used:
HBV = HBV efficacy assay: viral DNA in HepG2.2.15 supernatant by qPCR; type: cell-based; details: Hepatitis B virus
Procedure: HepG2.2.15 cells (100 μL) in RPMI1640 medium with 10% fetal bovine serum was added to all wells of a 96-well plate at a density of 1×10^4 cells per well and the plate was incubated at 37° C. in an environment of 5% CO2 for 24 hours. Following incubation, six ten-fold serial dilutions of test compound prepared in RPMI1640 medium with 10% fetal bovine serum were added to individual wells of the plate in triplicate. Six wells in the plate received medium alone as a virus only control. The plate was incubated for 6 days at 37° C. in an environment of 5% CO2. The culture medium was changed on day 3 with medium containing the indicated concentration of each compound. One hundred microliters of supernatant was collected from each well for analysis of viral DNA by qPCR and cytotoxicity was evaluated by XTT staining of the cell culture monolayer on the sixth day.
Ten microliters of cell culture supernatant collected on the sixth day was diluted in qPCR dilution buffer (40 μg/mL sheared salmon sperm DNA) and boiled for 15 minutes. Quantitative real time PCR was performed in […] using an Applied Biosystems 7900HT Sequence Detection System and the supporting SDS 2.4 software. Five microliters (5 μL) of boiled DNA for each sample and serial 10-fold dilutions of a quantitative DNA standard were subjected to real time Q-PCR using Platinum Quantitative PCR SuperMix-UDG (Invitrogen) and specific DNA oligonucleotide primers (IDT, Coralville, […]) HBV-AD38-qF1 (5′-CCGTCTGTGCCTTCTCATCTG-3′) (SEQ ID NO: 1), HBV-AD38-qR1 (5′-AGT CCA AGA GTY CTC TTA TRY AAG ACC TT-3′) (SEQ ID NO: 2), and HBV-AD38-qP1 (5′-FAM CCG TGT GCA/ZEN/CTT CGC TTC ACC TCT GC-3′BHQ1) (SEQ ID NO: 3, underlined portion only) at a final concentration of 0.2 μM for each primer in a total reaction volume of 15 μL. The HBV DNA copy number in each sample was interpolated from the standard curve by the SDS.24 software and the data were imported into an Excel spreadsheet for analysis.

[1] = human, in vivo; cited from earlier work
[2] = tested on: HBV encoded polymerase (Hepatitis B virus genotype D subtype ayw); details: cited from earlier work
HBV encoded polymerase (Hepatitis B virus genotype D subtype ayw), sequence (P03156 whole entry): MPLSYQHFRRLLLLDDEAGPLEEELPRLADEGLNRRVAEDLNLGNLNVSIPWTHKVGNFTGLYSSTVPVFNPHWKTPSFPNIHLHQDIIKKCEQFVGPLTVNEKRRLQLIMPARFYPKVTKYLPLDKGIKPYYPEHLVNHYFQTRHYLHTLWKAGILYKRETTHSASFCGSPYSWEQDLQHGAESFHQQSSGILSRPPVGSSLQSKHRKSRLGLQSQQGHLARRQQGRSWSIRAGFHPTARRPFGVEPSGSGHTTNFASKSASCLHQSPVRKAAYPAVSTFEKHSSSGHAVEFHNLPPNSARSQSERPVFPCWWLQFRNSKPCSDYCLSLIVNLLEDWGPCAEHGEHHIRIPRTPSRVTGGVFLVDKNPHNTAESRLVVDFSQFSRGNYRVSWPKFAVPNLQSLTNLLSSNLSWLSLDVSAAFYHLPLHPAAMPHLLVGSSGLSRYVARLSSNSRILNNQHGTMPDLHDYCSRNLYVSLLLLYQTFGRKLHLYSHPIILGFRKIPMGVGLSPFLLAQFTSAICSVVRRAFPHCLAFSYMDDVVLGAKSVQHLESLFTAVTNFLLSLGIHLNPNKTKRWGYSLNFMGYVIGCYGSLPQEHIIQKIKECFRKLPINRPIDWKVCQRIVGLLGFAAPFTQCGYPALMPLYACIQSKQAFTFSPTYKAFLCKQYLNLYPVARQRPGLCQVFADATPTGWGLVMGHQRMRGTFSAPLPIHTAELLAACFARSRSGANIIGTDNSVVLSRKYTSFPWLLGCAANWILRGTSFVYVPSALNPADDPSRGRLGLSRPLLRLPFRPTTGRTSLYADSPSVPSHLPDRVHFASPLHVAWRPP

[3] = HepG2.2.15, 144 h, read-out: HBV Efficacy Assay EC50 (μM)
[4] = 144 h, HepG2.2.15 cells, 6 days, viral DNA in supernatant by qPCR, read-out: HBV Efficacy Assay EC50

**Q.** With Cc1cn([C@H]2O[C@@H](CO)[C@H](O)[C@H]2F)c(=O)[nH]c1=O as the molecule, how does the EC50 (HBV; [3]) read?
**A.** 0.46 µM

**Q.** For Cc1cn([C@H]2O[C@@H](CO[P@@](=O)(N[C@@H](C)C(=O)OC(C)C)Oc3ccccc3)[C@H](O)[C@H]2F)c(=O)[nH]c1=O, which EC50 (HBV; [3]) is on record?
**A.** 1.71 µM

**Q.** For Cc1cn([C@H]2O[C@@H](CO[P@](=O)(N[C@@H](C)C(=O)OC(C)C)Oc3ccccc3)[C@H](O)[C@H]2F)c(=O)[nH]c1=O, which EC50 (HBV; [3]) is on record?
**A.** 4.29 µM

**Q.** With Cc1cn([C@H]2O[C@@H](CO[P@@](=O)(N[C@@H](C)C(=O)OC(C)C)Oc3ccccc3)[C@H](O[P@@](=O)(N[C@@H](C)C(=O)OC(C)C)Oc3ccccc3)[C@H]2F)c(=O)[nH]c1=O as the molecule, how does the EC50 (HBV; [3]) read?
**A.** 2.9 µM

**Q.** Which EC50 (HBV; [3]) does the source give for Cc1cn([C@H]2O[C@@H](CO[P@](=O)(N[C@@H](C)C(=O)OC(C)C)Oc3ccccc3)[C@H](O[P@](=O)(N[C@@H](C)C(=O)OC(C)C)Oc3ccccc3)[C@H]2F)c(=O)[nH]c1=O here?
**A.** 2.39 µM

**Q.** For Cc1cn([C@H]2O[C@@H](CO)C(O)C2F)c(=S)[nH]c1=O (some centres unmarked), which EC50 (HBV; [4]) is on record?
**A.** > 100 µM

**Q.** With Cc1cn([C@H]2O[C@@H](CO[P@](=O)(N[C@@H](C)C(=O)OC(C)C)Oc3ccccc3)C(O)C2F)c(=S)[nH]c1=O (some centres unmarked) as the molecule, how does the EC50 (HBV; [3]) read?
**A.** > 100 µM

**Q.** Which EC50 (HBV; [3]) does the source give for Cc1cn([C@H]2O[C@@H](CO[P@@](=O)(N[C@@H](C)C(=O)OC(C)C)Oc3ccccc3)C(O)C2F)c(=S)[nH]c1=O (some centres unmarked) here?
**A.** > 100 µM

**Q.** Which EC50 (HBV; [4]) does the source give for Nc1ccn([C@@H]2CS[C@H](CO)O2)c(=O)n1 here?
**A.** 0.14 µM

**Q.** For Cc1cn([C@H]2O[C@@H](CO)[C@H](O)[C@H]2F)c(=O)[nH]c1=O [Clevudine], which “adverse effect in patients” value [1] is on record?
**A.** drug-related skeletal myopathy

**Q.** With Cc1cn([C@H]2O[C@@H](COP(=O)(O)OP(=O)(O)OP(=O)(O)O)C(O)C2F)c(=O)[nH]c1=O (some centres unmarked) [clevudine triphosphate, Clevudine-5′-Triphosphate] as the molecule, how does the “mode of inhibition of the HBV encoded polymerase” value [2] read?
**A.** competitive non-substrate inhibitor
